Measurements: patent publication US20120213697A1, “VERSATILE NANOPARTICULATE BIOMATERIAL FOR CONTROLLED DELIVERY AND/OR CONTAINMENT OF THERAPEUTIC AND DIAGNOSTIC MATERIAL” (Albert Einstein College of Medicine of Yeshiva University, priority 2009, published 2012)

Assay: MRI of mice after tail vein injection, maximum pixel intensity of the kidney
Format: in vivo, mouse
Procedure: FIG. 2A-2B. MRI of a mouse injected with Magnevist® (gadopentetate dimeglumine) (A) and a mouse injected with nanoparticles loaded with gadopentetate dimeglumine (B). The left images are pre-injection, center images are 4 hours post injection, and right images are 24 hours post injection. […] A study was conducted to address the efficacy with which CA-loaded particles can provide MRI images. MRI images of mice were acquired pre-injection. Subsequently mice were injected (via the tail vein) with one of the following: i) a suspension of empty nanoparticles; ii) a suspension of nanoparticles loaded with Magnevist® (gadopentetate dimeglumine, a commercial Gd based MRI contrast reagent); and iii) Magnevist® solution. Mice were then imaged immediately after injection of each of these materials and again at 2 hours, 4 hours and 24 hours post injection. Maximum pixel intensity of the kidney was measured (relative to the background) at each time point using ImageJ software.

In the case of CNC[C@H](O)[C@@H](O)[C@H](O)[C@H](O)CO.CNC[C@H](O)[C@@H](O)[C@H](O)[C@H](O)CO.O=C([O-])CN(CCN(CC(=O)[O-])CC(=O)O)CCN(CC(=O)[O-])CC(=O)O.[Gd+3] [Magnevist®, gadopentetate dimeglumine], the “increase of maximum pixel intensity of the kidney” value (4 hours post-injection, tail vein, one mouse each) is reported as 32%, the “signal intensity throughout the GI tract” value (24 hour time point) is reported as “not observed” and the “MRI contrast (FIG. 2)” value (24 hours post-injection) is reported as “returned to pre-injection levels”. The “change of maximum pixel intensity of the kidney” value (24 hours post-injection, additional increase over 4 hours) was “returned to pre-injection levels”.
